Assay results reported in ChEMBL document CHEMBL1155305, “Discovery of a new series of monoamine reuptake inhibitors, the 1-amino-3-(1H-indol-1-yl)-3-phenylpropan-2-ols” (Bioorg Med Chem Lett, 2009).
The source made the active and inactive calls. The rule behind the calls is not given here.

Assays:
CYP2C9 = CYP2C9 (Homo sapiens, UniProt P11712); test: Inhibition of CYP2C9 at 3 uM; format: ADME
[1] = target: Sodium-dependent serotonin transporter (Homo sapiens, UniProt P31645); format: cell-based, JAR
Sequence of Sodium-dependent serotonin transporter (P31645 whole entry): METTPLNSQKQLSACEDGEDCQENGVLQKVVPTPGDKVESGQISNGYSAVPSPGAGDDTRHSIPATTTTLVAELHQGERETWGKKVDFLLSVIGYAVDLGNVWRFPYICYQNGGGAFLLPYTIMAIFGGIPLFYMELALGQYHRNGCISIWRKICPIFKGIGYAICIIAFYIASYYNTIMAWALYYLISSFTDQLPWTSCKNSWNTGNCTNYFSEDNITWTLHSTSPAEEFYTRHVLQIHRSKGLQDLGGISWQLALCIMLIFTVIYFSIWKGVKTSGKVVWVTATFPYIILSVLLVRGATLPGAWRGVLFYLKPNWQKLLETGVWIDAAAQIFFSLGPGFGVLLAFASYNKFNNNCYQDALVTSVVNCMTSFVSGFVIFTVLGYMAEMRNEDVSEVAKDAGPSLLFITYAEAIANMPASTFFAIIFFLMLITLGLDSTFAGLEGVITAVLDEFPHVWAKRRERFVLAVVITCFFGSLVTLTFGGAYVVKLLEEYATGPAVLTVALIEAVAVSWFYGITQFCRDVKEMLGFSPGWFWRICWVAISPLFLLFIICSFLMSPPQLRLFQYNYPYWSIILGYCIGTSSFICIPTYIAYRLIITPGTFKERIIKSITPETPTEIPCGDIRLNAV
Description: Inhibition of serotonin uptake at human SERT expressed in JAR cells

CYP3A4 = CYP3A4 (Homo sapiens, UniProt P08684); test: Inhibition of CYP3A4 at 3 uM; format: ADME
Sequence of CYP3A4 (P08684 whole entry): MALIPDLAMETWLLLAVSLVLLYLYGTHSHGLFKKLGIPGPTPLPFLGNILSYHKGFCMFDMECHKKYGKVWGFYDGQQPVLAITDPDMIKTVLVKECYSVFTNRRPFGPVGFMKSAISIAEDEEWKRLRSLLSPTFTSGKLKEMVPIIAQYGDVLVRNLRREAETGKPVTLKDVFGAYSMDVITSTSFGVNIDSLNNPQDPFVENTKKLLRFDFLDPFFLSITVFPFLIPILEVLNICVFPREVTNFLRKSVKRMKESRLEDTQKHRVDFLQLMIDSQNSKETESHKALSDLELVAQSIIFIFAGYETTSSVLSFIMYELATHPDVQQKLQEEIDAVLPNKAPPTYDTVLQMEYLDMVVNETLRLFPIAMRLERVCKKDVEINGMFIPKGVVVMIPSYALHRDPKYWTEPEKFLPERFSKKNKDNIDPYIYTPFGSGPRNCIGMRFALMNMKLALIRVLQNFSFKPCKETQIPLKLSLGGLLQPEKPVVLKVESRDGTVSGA

CYP2D6 = CYP2D6 (Homo sapiens, UniProt P10635); test: Inhibition of CYP2D6 at 3 uM; format: ADME
Sequence of CYP2D6 (P10635 whole entry): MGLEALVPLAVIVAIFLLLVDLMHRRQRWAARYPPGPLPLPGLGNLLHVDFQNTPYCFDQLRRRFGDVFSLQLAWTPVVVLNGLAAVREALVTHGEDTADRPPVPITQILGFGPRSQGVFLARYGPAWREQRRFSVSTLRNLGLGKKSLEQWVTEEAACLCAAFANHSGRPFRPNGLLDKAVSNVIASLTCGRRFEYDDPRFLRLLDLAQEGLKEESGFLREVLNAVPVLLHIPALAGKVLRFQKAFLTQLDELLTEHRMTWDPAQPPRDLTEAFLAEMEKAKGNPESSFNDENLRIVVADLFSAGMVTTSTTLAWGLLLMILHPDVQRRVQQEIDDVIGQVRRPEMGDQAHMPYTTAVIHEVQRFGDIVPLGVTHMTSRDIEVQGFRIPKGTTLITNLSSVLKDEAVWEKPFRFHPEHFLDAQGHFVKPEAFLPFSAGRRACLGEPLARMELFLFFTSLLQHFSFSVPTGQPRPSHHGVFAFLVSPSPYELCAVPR

[2] = Half life in human liver microsomes at 1 uM; format: ADME, Microsome
[3] = Aqueous solubility at pH 7.4; format: physicochemical
[4] = Membrane permeability by PAMPA assay; format: ADME; settings: read-out: permeability
[5] = Half life in monkey liver microsomes at 1 uM; format: ADME, Macaca mulatta, Microsome; settings: rhesus monkey
[6] = Half life in rat liver microsomes at 1 uM; format: ADME, Microsome
[7] = Half life in dog liver microsomes at 1 uM; format: ADME, Canis lupus familiaris, Microsome
[8] = target: Sodium-dependent dopamine transporter (Homo sapiens) (UniProt Q01959); test: Displacement of [3H]WIN-35428 from human recombinant DAT expressed in CHO cells at 1 uM; format: cell-based
Sequence of Sodium-dependent dopamine transporter (Homo sapiens) (Q01959 whole entry): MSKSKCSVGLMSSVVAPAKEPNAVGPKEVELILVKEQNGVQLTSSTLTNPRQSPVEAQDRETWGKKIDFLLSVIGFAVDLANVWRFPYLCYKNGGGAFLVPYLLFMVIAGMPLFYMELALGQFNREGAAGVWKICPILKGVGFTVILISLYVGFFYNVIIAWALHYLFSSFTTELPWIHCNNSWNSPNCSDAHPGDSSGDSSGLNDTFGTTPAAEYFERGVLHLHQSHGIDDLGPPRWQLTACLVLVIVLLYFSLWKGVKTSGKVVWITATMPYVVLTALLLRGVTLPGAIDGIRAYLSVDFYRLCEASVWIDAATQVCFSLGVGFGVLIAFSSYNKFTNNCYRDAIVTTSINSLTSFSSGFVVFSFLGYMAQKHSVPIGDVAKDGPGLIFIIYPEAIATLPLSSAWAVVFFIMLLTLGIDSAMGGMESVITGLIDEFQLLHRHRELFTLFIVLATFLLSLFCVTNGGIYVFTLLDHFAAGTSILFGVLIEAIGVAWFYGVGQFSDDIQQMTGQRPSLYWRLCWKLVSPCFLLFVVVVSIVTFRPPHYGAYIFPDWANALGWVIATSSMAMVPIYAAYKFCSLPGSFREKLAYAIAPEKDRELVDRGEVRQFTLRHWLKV

[9] = Binding affinity to alpha1 adrenergic receptor
[10] = Binding affinity to alpha2 adrenergic receptor
[11] = target: 5-hydroxytryptamine receptor 2A (Homo sapiens) (UniProt P28223); test: Binding affinity to 5-HT2A receptor
Sequence of 5-hydroxytryptamine receptor 2A (Homo sapiens) (P28223 whole entry): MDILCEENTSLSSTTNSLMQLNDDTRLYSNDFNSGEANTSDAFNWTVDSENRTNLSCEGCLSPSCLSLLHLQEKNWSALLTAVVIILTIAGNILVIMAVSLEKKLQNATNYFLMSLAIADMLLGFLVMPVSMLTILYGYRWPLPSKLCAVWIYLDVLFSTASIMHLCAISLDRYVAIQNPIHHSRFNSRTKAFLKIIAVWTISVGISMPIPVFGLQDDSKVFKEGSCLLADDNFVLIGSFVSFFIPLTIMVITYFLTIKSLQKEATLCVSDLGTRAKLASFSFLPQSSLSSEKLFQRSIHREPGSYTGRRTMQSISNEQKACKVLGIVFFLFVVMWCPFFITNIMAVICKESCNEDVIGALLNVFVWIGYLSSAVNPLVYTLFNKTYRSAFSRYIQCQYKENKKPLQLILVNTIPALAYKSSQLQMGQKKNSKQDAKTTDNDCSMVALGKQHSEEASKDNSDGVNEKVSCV

[12] = target: T1, 5-hydroxytryptamine receptor 1A (Homo sapiens) (UniProt P08908); test: Binding affinity to 5-HT1A receptor
T1 sequence (whole entry): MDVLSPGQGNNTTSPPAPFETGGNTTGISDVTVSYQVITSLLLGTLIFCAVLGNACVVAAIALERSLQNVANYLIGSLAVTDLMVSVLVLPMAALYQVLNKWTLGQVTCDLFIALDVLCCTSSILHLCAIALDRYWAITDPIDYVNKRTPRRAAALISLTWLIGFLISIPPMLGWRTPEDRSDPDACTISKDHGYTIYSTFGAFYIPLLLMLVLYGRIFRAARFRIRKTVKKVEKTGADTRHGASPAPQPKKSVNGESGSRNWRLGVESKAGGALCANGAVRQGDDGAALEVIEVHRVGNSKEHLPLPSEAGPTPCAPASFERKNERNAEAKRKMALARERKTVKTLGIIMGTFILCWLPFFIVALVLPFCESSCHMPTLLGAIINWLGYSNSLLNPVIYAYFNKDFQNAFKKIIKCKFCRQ

MDCK-Net6 = test: Selectivity index, ratio of IC50 for human SERT to IC50 for human NET uptake in MDCK-Net6 cell; format: cell-based
[13] = target: T2, Sodium-dependent noradrenaline transporter (Homo sapiens, UniProt P23975)
T2 sequence (P23975 whole entry): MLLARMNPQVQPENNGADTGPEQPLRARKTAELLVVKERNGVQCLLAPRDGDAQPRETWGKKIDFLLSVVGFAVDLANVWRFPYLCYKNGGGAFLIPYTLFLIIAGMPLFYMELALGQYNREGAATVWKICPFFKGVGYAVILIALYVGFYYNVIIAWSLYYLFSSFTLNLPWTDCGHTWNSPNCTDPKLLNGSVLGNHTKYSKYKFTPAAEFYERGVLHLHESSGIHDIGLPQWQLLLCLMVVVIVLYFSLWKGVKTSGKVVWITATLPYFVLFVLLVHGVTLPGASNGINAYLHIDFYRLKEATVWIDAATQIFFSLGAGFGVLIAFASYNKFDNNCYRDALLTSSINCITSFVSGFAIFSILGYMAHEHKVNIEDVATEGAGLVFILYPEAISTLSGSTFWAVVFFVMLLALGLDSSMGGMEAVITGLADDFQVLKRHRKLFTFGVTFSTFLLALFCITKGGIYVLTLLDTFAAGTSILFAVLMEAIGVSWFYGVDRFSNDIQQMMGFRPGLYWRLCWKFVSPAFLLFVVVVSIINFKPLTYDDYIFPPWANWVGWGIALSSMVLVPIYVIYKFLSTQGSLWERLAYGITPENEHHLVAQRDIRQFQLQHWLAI

[14] = target: T2, Sodium-dependent noradrenaline transporter; test: Inhibition of norepinephrine reuptake at human NET expressed in MDCK-Net6 cells at 1000 nM; format: cell-based

Sequence of CYP2C9 (P11712 whole entry): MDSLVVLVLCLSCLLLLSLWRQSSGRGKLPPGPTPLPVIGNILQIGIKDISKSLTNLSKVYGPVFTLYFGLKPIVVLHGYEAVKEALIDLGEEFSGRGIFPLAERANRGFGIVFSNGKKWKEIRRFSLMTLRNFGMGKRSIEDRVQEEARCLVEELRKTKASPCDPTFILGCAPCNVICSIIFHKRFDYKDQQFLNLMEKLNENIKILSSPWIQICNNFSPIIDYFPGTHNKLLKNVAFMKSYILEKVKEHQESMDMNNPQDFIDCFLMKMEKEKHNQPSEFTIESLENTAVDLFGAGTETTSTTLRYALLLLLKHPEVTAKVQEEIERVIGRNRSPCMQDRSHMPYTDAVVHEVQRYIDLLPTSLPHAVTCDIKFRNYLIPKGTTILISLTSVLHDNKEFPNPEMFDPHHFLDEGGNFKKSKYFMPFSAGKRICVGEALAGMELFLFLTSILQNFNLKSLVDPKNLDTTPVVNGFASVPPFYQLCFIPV

SMILES: CNC[C@@H](O)[C@H](c1ccccc1)n1ccc2ccccc21 [listing 1 of 2 here]
- inhibition at 3 µM (CYP2C9): < 20%
- IC50 [1]: 358 nM
- inhibition at 3 µM (CYP3A4): < 20%
- inhibition at 3 µM (CYP2D6): < 20%
- half-life at 1 µM [2]: > 60 min
- solubility [3]: > 50 µg/mL
- Papp [4]: 4.6 ×10⁻⁶ cm/s
- half-life at 1 µM [5]: 9.7 min
- half-life at 1 µM [6]: 9.8 min
- half-life at 1 µM [7]: 15.9 min

SMILES: CNC[C@@H](O)[C@@H](c1ccccc1)n1ccc2ccccc21
- IC50 [1]: 161 nM
- inhibition [8]: 31%

SMILES: CNC[C@H](O)[C@@H](c1ccccc1)n1ccc2ccccc21 [listing 1 of 2 here]
- IC50 [1]: 144 nM

SMILES: CNC[C@H](O)[C@H](c1ccccc1)n1ccc2ccccc21
- IC50 [1]: 918 nM
- inhibition [8]: 0%

SMILES: CNC[C@@H](O)[C@H](c1ccccc1)n1ccc2ccccc21 [listing 2 of 2 here]
- Activity [9]: inactive
- Activity [10]: inactive
- Activity [11]: inactive
- Activity [12]: inactive
- inhibition [8]: 19%

SMILES: CNC[C@H](O)[C@@H](c1ccccc1)n1ccc2ccccc21 [listing 2 of 2 here]
- inhibition [8]: 18%

SMILES: OC1(c2ccc(Cl)cc2)c2ccccc2C2=NCCN21 (stereo not given)
- inhibition [8]: 22.1%

SMILES: CCNC[C@H](O)[C@H](c1ccccc1)n1ccc2ccccc21 (racemic)
- IC50 [1]: 298 nM
- Ratio IC50 (MDCK-Net6): 0.2
- IC50 [13]: 1200 nM

SMILES: CNC[C@H](O)[C@H](c1ccccc1)n1ccc2cc(Cl)ccc21 (racemic)
- IC50 [1]: 10 nM
- Ratio IC50 (MDCK-Net6): 0.2
- IC50 [13]: 49 nM

SMILES: CNC[C@H](O)[C@H](c1ccccc1)n1ccc2cc(F)ccc21 (racemic)
- IC50 [1]: 95 nM
- Ratio IC50 (MDCK-Net6): 1
- IC50 [13]: 118 nM

SMILES: O[C@@H](CNCC1CCCCC1)[C@H](c1ccccc1)n1ccc2ccccc21 (racemic)
- IC50 [1]: 2830 nM
- inhibition [14]: 41%

SMILES: CNC[C@H](O)[C@H](c1ccccc1)n1ccc2cc(OC)ccc21 (racemic)
- IC50 [1]: 31 nM
- Ratio IC50 (MDCK-Net6): 0.1
- IC50 [13]: 230 nM
- inhibition [8]: 2%

SMILES: CCNC[C@H](O)[C@H](c1ccccc1)n1cc(C)c2ccccc21 (racemic)
- IC50 [1]: 2200 nM
- Ratio IC50 (MDCK-Net6): 2
- IC50 [13]: 1100 nM
- inhibition [8]: 0%

SMILES: Cc1cn([C@@H](c2ccccc2)[C@@H](O)CN)c2ccccc12 (racemic)
- IC50 [1]: 299 nM
- Ratio IC50 (MDCK-Net6): 1
- IC50 [13]: 321 nM
- inhibition [8]: 6%

SMILES: NC[C@H](O)[C@H](c1ccccc1)n1ccc2ccccc21 (racemic)
- IC50 [1]: 50 nM
- Ratio IC50 (MDCK-Net6): 0.1
- inhibition [8]: 7%

SMILES: CNC[C@H](O)[C@H](c1ccccc1)n1cc(C)c2ccccc21 (racemic)
- IC50 [1]: 251 nM
- inhibition [8]: 0%

SMILES: CC(C)NC[C@H](O)[C@H](c1ccccc1)n1ccc2ccccc21 (racemic)
- inhibition [14]: 13%

SMILES: CCN(C)C[C@H](O)[C@H](c1ccccc1)n1ccc2ccccc21 (racemic)
- inhibition [14]: 38%

SMILES: CCNC[C@H](O)[C@H](c1ccccc1)n1ccc2cc(F)ccc21 (racemic)
- inhibition [14]: 11%

SMILES: CN(C)C[C@H](O)[C@H](c1ccccc1)n1ccc2ccccc21 (racemic)
- inhibition [14]: 25%

SMILES: CN1CCN(C[C@H](O)[C@H](c2ccccc2)n2ccc3ccccc32)CC1 (racemic)
- inhibition [14]: 5%

SMILES: CNC[C@H](O)[C@H](c1ccccc1)n1c(C)cc2ccccc21 (racemic)
- inhibition [14]: 45%

SMILES: NC[C@H](O)[C@H](c1ccccc1)n1ccc2cc(F)ccc21 (racemic)
- inhibition [14]: 32%

SMILES: O[C@@H](CN1CCNCC1)[C@H](c1ccccc1)n1ccc2ccccc21 (racemic)
- inhibition [14]: 34%

SMILES: O[C@@H](CN1CCOCC1)[C@H](c1ccccc1)n1ccc2ccccc21 (racemic)
- inhibition [14]: 18%

SMILES: O[C@@H](CNCc1ccccc1)[C@H](c1ccccc1)n1ccc2ccccc21 (racemic)
- inhibition [14]: 26%

SMILES: O[C@@H](CNCc1ccncc1)[C@H](c1ccccc1)n1ccc2ccccc21 (racemic)
- inhibition [14]: 24%

SMILES: CNC[C@@H](O)[C@H](c1ccccc1)n1ccc2ccccc21 (stereo in doubt) [listing 1 of 2 here]
- IC50 [1]: 126 nM

SMILES: CNC[C@H](O)[C@@H](c1ccccc1)n1ccc2ccccc21 (stereo in doubt) [listing 1 of 2 here]
- IC50 [1]: 74 nM

SMILES: CNC[C@@H](O)[C@H](c1ccccc1)n1ccc2ccccc21 (stereo in doubt) [listing 2 of 2 here]
- inhibition [8]: 7%

SMILES: CNC[C@H](O)[C@@H](c1ccccc1)n1ccc2ccccc21 (stereo in doubt) [listing 2 of 2 here]
- inhibition [8]: 4%
